Assay results from US20170333388A1, “Therapeutic compound and its application in repairing diabetes-related cardiac injuries” (Numen Biotech Co., Ltd, priority 2016, published 2017).

Key:
Format in all cases: cell-based, rat
[1] = test system: adipose-derived stem cells (ADSC); test: transwell migration assay of ADSC in high glucose medium
Procedure: The stem cells were divided into five different groups, which were: Group 1: stem cell group, Group 2: high glucose destroyed stem cell group, Group 3: EGCG (2.5 μM in concentration) precondition high glucose destroyed stem cell group, Group 4: EGCG (5 μM in concentration) precondition high glucose destroyed stem cell group, Group 5: EGCG (10 μM in concentration) precondition high glucose destroyed stem cell group. […] The migration ability of the five groups was: 63±10, 36±7, 55±5, 84±6 and 144±4, respectively. In comparison with the normal stem cell group (Group 1), the migration ability of the stem cells cultured in high glucose medium was decreased (Group 1>Group 2, p<0.05). In contrast, in comparison to the high glucose destroyed stem cells, the migration ability of stem cells was recovered under different EGCG concentration precondition (Group 2<Group 3, p<0.05; Group 2<Group 4, p<0.001; Group 2<Group 5, p<0.001). Then the migration ability of stem cells under different experiment conditions was tested. The more numbers of stem cells represents the stem cells have stronger migration ability under this experiment condition.
During the analysis of protein expression level, the EGCG induced expression level of CXCR4 and p-Akt increase would be eliminated by siRNA CXCR4. […] The stem cells were divided into six groups in this test, which were: Group 1: stem cell group, Group 2: high glucose destroyed stem cell group, Group 3: EGCG (10 μM in concentration) precondition high glucose destroyed stem cell group, Group 4: siRNA CXCR4 (3 nM) was added in Group 3, Group 5: CXCR4 siRNA (10 nM) was added into Group 4. The numbers of migrated stem cells were 288±25, 36±7, 159±17, 84±6, 41±8 and 40±2 respectively.

[2] = test system: adipose-derived stem cells (ADSC); test: stem cell proliferation (colony) experiment in high glucose medium; settings: high glucose destroyed stem cells (33 mM glucose)
Procedure: The adipose-derived stem cells were taken out from the abdominal adipose tissue of 8-month-old Wistar male rats via surgery. After cutting the adipose tissues into suitable sizes, the adipose tissues were washed by antibiotic containing saline. The washed adipose tissues were placed into a Type II collagenase (0.01%) containing saline, and were stirred and heated under 37° C. water bath for 1 hour. Then the adipose tissues were centrifuged by 3000 rpm under room temperature for 10 minute, the precipitants were extracted for cell culture in the culture dish.
In the aspect of stem cell proliferation experiment, the more the number of stem cell colonies in different experimental conditions represents for the better growth experiment condition for stem cells. The stem cells were divided into 5 different groups, which were: Group 1: stem cell group, Group 2: high glucose destroyed stem cell group, Group 3: EGCG (2.5 μM in concentration) precondition high glucose destroyed stem cell group, Group 4: EGCG (5 μM in concentration) precondition high glucose destroyed stem cell group, Group 5: EGCG (10 μM in concentration) precondition high glucose destroyed stem cell group. […] In comparison with the normal stem cell group (Group 1), the distribution of the stem cells colonies cultured in high glucose medium was inhibited (Group 1>Group 2, p<0.001). In contrast, in comparison to the high glucose destroyed stem cells, the stem cell colonies were recovered under different EGCG concentration precondition (Group 2<Group 3, p<0.05; Group 2<Group 4, p<0.05; Group 2<Group 5, p<0.01). Then the migration ability of stem cells under different experiment conditions was tested. The more numbers of stem cells represent the stem cells have stronger migration ability under this experiment condition.

[3] = test system: adipose-derived stem cells (ADSC); test: Western blot of protein expression in ADSC preconditioned with EGCG
Procedure: After the drug treatment, the culture medium was removed from the cells and rinsed with PBS buffer for three times; then 1 mL PBS was used to scrape the cells from the dish and the cells containing solution was placed in a centrifuge tube, and the solution was centrifuged by 12,000 rpm for 10 minutes, then the supernatant was removed, and the lysis buffer (50 mM Tris pH 7.5,0.5 M NaCl, 1.0 mM EDTA pH 7.5,1 mM BME, 1% NP40,10% glycerol, protease inhibitor cocktail table) was added and mixed. The mixture was placed on ice and shock once every 5 minutes for 30 minutes, and then the mixture was centrifuged at 12,000 g in 4° C. for 10 minutes, the upper layer was placed in a new tube to measure the protein concentration.
After the drug treatment, the culture medium was removed from the cells and rinsed with PBS buffer for three times; then 1 mL PBS was used to scrape the cells from the dish and the cells containing solution was placed in a centrifuge tube, and the solution was centrifuged by 12,000 rpm for 10 minutes then the supernatant was removed and extraction buffer (50 mM Tris pH 7.5-0.5 M NaCl-1.0 mM EDTA pH 7.5-10% glycerol-protease inhibitor cocktail table) was added into the mill tube, then grinded on ice. And the homogenate was then placed in a new centrifuge tube to centrifuge at 4° C. by 12,000 rpm for 10 minutes, the upper layer was placed in a new centrifuge tube for measuring the protein concentration.
[…] protein samples were added into a PBS solution, and 5× loading dye was added then mixed evenly and boiled for 10 minutes, then analyze by SDS-polyacrylamide slab gel electrophoresis. The upper layer of the SDS-polyacrylamide gel electrophoresis was 3.75% Stacking gel, and the lower layer was 5% and 12% Separating gel. The plastic plates was fixed to the electrophoresis apparatus and the electrophoresis buffer was filled into the electrophoresis tank, and then the treated protein sample was added into the U-shaped groove formed on a plastic plate, and undergo electrophoresis with 75 volts. […]

[4] = EGCG precondition at different concentrations vs high glucose destroyed stem cells

SMILES: O=C(O[C@@H]1Cc2c(O)cc(O)cc2O[C@@H]1c1cc(O)c(O)c(O)c1)c1cc(O)c(O)c(O)c1 [EGCG, epigallocatechin gallate]
- migration ability (numbers of migrated stem cells) ([1]; FIG. 4, EGCG 2.5 μM precondition): 55±5
- migration ability (numbers of migrated stem cells) ([1]; FIG. 4, EGCG 5 μM precondition): 84±6
- migration ability (numbers of migrated stem cells) ([1]; FIG. 4, EGCG 10 μM precondition): 144±4
- numbers of migrated stem cells ([1]; FIG. 7, Group 3: EGCG 10 μM precondition): 159±17
- numbers of migrated stem cells ([1]; FIG. 7, Group 4: EGCG 10 μM precondition, siRNA CXCR4 3 nM added): 84±6
- numbers of migrated stem cells ([1]; FIG. 7, Group 5: EGCG 10 μM precondition, CXCR4 siRNA 10 nM added): 41±8
- stem cell colonies ([2]; EGCG 2.5 μM precondition): 152±17
- stem cell colonies ([2]; EGCG 5 μM precondition): 178±22
- stem cell colonies ([2]; EGCG 10 μM precondition): 226±31
- apoptosis protein cytochrome-C expression level [3, 4]: decreased
- migration protein (CXCR4) expression level [3, 4]: recovered
- EGCG induced increase of CXCR4 and p-Akt expression level ([3]; FIG. 6, in the presence of siRNA CXCR4): eliminated
